The structures appear in SMILES notation.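 Briefly, cells in 96-well plates were exposed to five compound concentrations for 48 h, and endpoints were estimated by linear interpolation. At the GI50, growth is halved.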 Calls of active or inactive are those of the source. Rule as the data show it: active = GI50 up to about 1.1 µM and inactive = higher.

We go through eight compounds from ChEMBL document CHEMBL1201862, “PubChem BioAssay data set” (2004).

Test systems include CCRF-CEM; HOP-92; Hs-578T; MOLT-4; NCI-H226; NCI-H522; OVCAR-4; OVCAR-5; RXF 393; SK-OV-3; SN12C; SNB-19; SNB-75; TK-10; U-251; UACC-257; HCC 2998; NCI-H23.
Experiment in all cases: NCI tumour cell line growth inhibition, 48 h

Consider `O=C(/C=C/c1ccc([N+](=O)[O-])cc1)c1nc2ccccc2[nH]1`, for which the GI50 with CCRF-CEM was 20 µM (inactive); with HOP-92 it was 45.5 µM (inactive); with Hs-578T, > 45.8 µM (inactive); in the assay on MOLT-4, 25.2 µM (inactive); in the assay with NCI-H226, 1.05 µM (active); in the assay on NCI-H522 it was 32.9 µM (inactive). In addition, the GI50 in the assay on OVCAR-4 was > 66.1 µM (inactive); with OVCAR-5, 3.54 µM (inactive); in the assay on RXF 393, 40.8 µM (inactive); in the assay on SK-OV-3 it was > 100 µM (inactive); in the assay with SN12C, > 100 µM (inactive); in the assay on SNB-19, > 93.3 µM (inactive). Moreover, the GI50 is 45.3 µM (inactive) in the assay on SNB-75, 3.57 µM (inactive) in the assay on TK-10, 13.2 µM (inactive) in the assay on U-251 and 9.08 µM (inactive) with UACC-257.

Take `CC1(O)CC23CC(O)C4(O)C(CC(O)C4(C)C)C(C)(O)C2CCC1C3O` (stereo unspecified): the GI50 with CCRF-CEM, with HCC 2998, with HOP-92, in the assay on Hs-578T, in the assay with MOLT-4 and with NCI-H226 was > 100 µM (inactive) each time. For the same compound, the GI50 in the assay with NCI-H23, in the assay on NCI-H522, with OVCAR-4, in the assay on OVCAR-5, in the assay on SK-OV-3 and with SN12C was > 100 µM (inactive) in each case. For the same compound, the GI50 in the assay on SNB-19, in the assay on TK-10, in the assay on U-251 and with UACC-257 was > 100 µM (inactive) in each case.

Turning to `NN/C(=N\S(=O)(=O)c1cc2ccccc2o1)Nc1ccc(Cl)cc1`, the GI50 in the assay with CCRF-CEM was 2.02 µM (inactive); with HOP-92 it was 20.4 µM (inactive); in the assay with Hs-578T it was 39.8 µM (inactive); with MOLT-4 it was > 100 µM (inactive); with NCI-H226 it was > 100 µM (inactive); with NCI-H23, > 100 µM (inactive). Besides, the GI50 is 24.4 µM (inactive) in the assay on NCI-H522; > 100 µM (inactive) in the assay on OVCAR-4; > 100 µM (inactive) with OVCAR-5; 20.7 µM (inactive) with RXF 393; 42.8 µM (inactive) in the assay on SK-OV-3; > 100 µM (inactive) in the assay on SN12C. Further, the GI50 with SNB-19 is 60.8 µM (inactive); in the assay with SNB-75, 13.1 µM (inactive); in the assay on TK-10, 72.6 µM (inactive); in the assay on U-251 it was 46.6 µM (inactive); in the assay on UACC-257, > 100 µM (inactive).

On to `Cc1ccc2c(sc(-c3ccc4c(c3)sc(-c3ccc(N(C)C)cc3)[n+]4C)[n+]2C)c1S(=O)(=O)O.Cc1ccc2c(sc(-c3ccc4c(c3)sc(-c3ccc5c(c3)sc(-c3ccc(N(C)C)cc3)[n+]5C)[n+]4C)[n+]2C)c1S(=O)(=O)O`, for which the GI50 in the assay on CCRF-CEM is 10 µM (inactive); in the assay with HCC 2998, > 100 µM (inactive); in the assay with HOP-92, > 100 µM (inactive); in the assay with Hs-578T, 72.4 µM (inactive); with MOLT-4, 51.9 µM (inactive); in the assay with NCI-H23, > 100 µM (inactive). Further, the GI50 in the assay on NCI-H522 was 30.4 µM (inactive); with OVCAR-4 it was 43 µM (inactive); in the assay on OVCAR-5, > 100 µM (inactive); in the assay with SK-OV-3, > 100 µM (inactive); in the assay on SN12C it was > 100 µM (inactive); in the assay on SNB-19 it was > 100 µM (inactive). Also, the GI50 in the assay on SNB-75, in the assay with TK-10, with U-251 and in the assay on UACC-257 was > 100 µM (inactive) each time.

For `Cc1cn([C@@H]2O[C@H](CO[Si](C)(C)C(C)(C)C)[C@]3(O[C@H]3C(=O)NN)[C@H]2O[Si](C)(C)C(C)(C)C)c(=O)[nH]c1=O`, the GI50 was 2.42 µM (inactive) in the assay on CCRF-CEM; 3.13 µM (inactive) in the assay with HCC 2998; 6.24 µM (inactive) in the assay with HOP-92; 2.72 µM (inactive) in the assay on Hs-578T; 2.04 µM (inactive) in the assay with MOLT-4; 12 µM (inactive) in the assay with NCI-H226. Moreover, the GI50 with NCI-H23 is 14.1 µM (inactive); in the assay on NCI-H522, 2.2 µM (inactive); in the assay on OVCAR-4 it was 6.4 µM (inactive); with OVCAR-5, 8.55 µM (inactive); with SK-OV-3, 18.1 µM (inactive); in the assay with SN12C, 5.79 µM (inactive). Further, the GI50 is 7.66 µM (inactive) in the assay on SNB-19; 7.98 µM (inactive) with SNB-75; 12.7 µM (inactive) in the assay on TK-10; 4.23 µM (inactive) in the assay on U-251; 13 µM (inactive) with UACC-257.

With `Cc1ccc2c3c1O[C@H]1c4nc5ccccc5cc4C[C@@]4(O)[C@@H](C2)N(CC2CC2)CC[C@]314`, the GI50 is 1.39 µM (inactive) in the assay on CCRF-CEM; 19.9 µM (inactive) in the assay with HOP-92; 8.69 µM (inactive) in the assay on Hs-578T; 2.5 µM (inactive) in the assay with MOLT-4; 10.6 µM (inactive) in the assay with NCI-H226; 20.6 µM (inactive) in the assay with NCI-H23. For the same compound, the GI50 with NCI-H522 is 13.7 µM (inactive); in the assay on OVCAR-4 it was 13.4 µM (inactive); in the assay on OVCAR-5, 12.7 µM (inactive); in the assay on RXF 393 it was 8 µM (inactive); with SK-OV-3, 14.1 µM (inactive); in the assay with SN12C, 28.6 µM (inactive). For the same compound, the GI50 in the assay with SNB-19 is 12.8 µM (inactive); in the assay on TK-10 it was 29.6 µM (inactive); in the assay on U-251, 5.74 µM (inactive); in the assay on UACC-257, 24.7 µM (inactive).

For `COc1cc2c(cc1OC)C1Cc3ccccc3CCN1CC2` (stereo unspecified), the GI50 was > 100 µM (inactive) with CCRF-CEM; 44 µM (inactive) in the assay with HCC 2998; 36.1 µM (inactive) in the assay on HOP-92; > 100 µM (inactive) with Hs-578T; 35.1 µM (inactive) in the assay on MOLT-4; 60.4 µM (inactive) in the assay on NCI-H226. In addition, the GI50 in the assay with NCI-H23, in the assay with NCI-H522, with OVCAR-4, in the assay on OVCAR-5, in the assay with SK-OV-3 and with SN12C was > 100 µM (inactive) each time. In addition, the GI50 with SNB-19 is > 100 µM (inactive); with SNB-75, 68.5 µM (inactive); in the assay on TK-10, > 100 µM (inactive); with U-251, > 100 µM (inactive); in the assay with UACC-257, > 100 µM (inactive).

For the compound `C=CCOc1ccc(C(/N=N\c2ccc(Cl)cc2)=N/NC(=O)c2ccccc2)cc1OC`, the GI50 in the assay with CCRF-CEM was 29.5 µM (inactive); with HCC 2998, 39 µM (inactive); with HOP-92, 32.1 µM (inactive); with Hs-578T, 73.1 µM (inactive); in the assay on MOLT-4 it was 32.1 µM (inactive); in the assay with NCI-H226, 53.7 µM (inactive). In addition, the GI50 is 60 µM (inactive) with NCI-H23; 41.3 µM (inactive) with NCI-H522; 76.7 µM (inactive) in the assay on OVCAR-4; > 100 µM (inactive) in the assay with OVCAR-5; 50.5 µM (inactive) with SN12C; > 100 µM (inactive) in the assay on SNB-19. In addition, the GI50 was 60.3 µM (inactive) in the assay with SNB-75, > 100 µM (inactive) with TK-10, 57.3 µM (inactive) in the assay with U-251 and 41.8 µM (inactive) with UACC-257.
